From the supplement of paper PMC10878532, “Sperm Toolbox—A selection of small molecules to study human spermatozoa” (PLOS ONE, 2024)
Structures can show the parent of a compound that is named as a salt.

Tests used:
HeLa [1] = test: Cell Painting percent induction (share of features beyond 2 z-scores vs DMSO); higher = more features changed / larger toxic effect; extreme values may be limits of the assay; details: incubation time: 24h incubation
human spermatozoa [2] = test: acrosome-reacted (PNA+) sperm after agonist cocktail, percent change vs DMSO (capacitating); higher = more of the measured sperm population than DMSO, for viability, fewer PI-positive (dead) cells than DMSO; details: incubation time: 3h, capacitating + agonist cocktail 1h
human spermatozoa [3] = test: progressively motile sperm, percent change vs DMSO (non-capacitating); higher = more of the measured sperm population than DMSO, for viability, fewer PI-positive (dead) cells than DMSO; extreme values may be limits of the assay
human spermatozoa [4] = test: total motile sperm, percent change vs DMSO (non-capacitating); higher = more of the measured sperm population than DMSO, for viability, fewer PI-positive (dead) cells than DMSO
human spermatozoa [5] = test: progressively motile sperm, percent change vs DMSO (capacitating); higher = more of the measured sperm population than DMSO, for viability, fewer PI-positive (dead) cells than DMSO; details: incubation time: 30min incubation
human spermatozoa [6] = test: viability fold change, 1 - (PI-positive fraction / DMSO median); higher = more of the measured sperm population than DMSO, for viability, fewer PI-positive (dead) cells than DMSO; details: incubation time: 3h, non-capacitating
HeLa [7] = test: HeLa toxicity: nuclei-count effect normalised to DMSO (DMSO = 0); higher = more features changed / larger toxic effect; details: incubation time: 24h incubation
human spermatozoa [8] = test: hyperactivated motile sperm, percent change vs DMSO (capacitating); higher = more of the measured sperm population than DMSO, for viability, fewer PI-positive (dead) cells than DMSO; details: incubation time: 30min incubation
human spermatozoa [9] = test: change in acrosome-reacted (PNA+) sperm vs DMSO, no agonist (capacitating); higher = more of the measured sperm population than DMSO, for viability, fewer PI-positive (dead) cells than DMSO; details: incubation time: 3h
HepG2 = HepG2 toxicity (resazurin), effect normalised to DMSO (DMSO = 0); higher = more features changed / larger toxic effect; details: incubation time: 70h incubation
[10] = incubation time: 10min incubation, 9.99 µM
[11] = incubation time: 10min incubation, 29.9 µM
[12] = incubation time: 3h incubation, 9.99 µM
[13] = incubation time: 3h incubation, 29.9 µM
[14] = incubation time: 6h incubation, 9.99 µM
[15] = incubation time: 6h incubation, 29.9 µM
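Throughout, for progressively motile sperm, percent change vs DMSO (non-capacitating): pooled live human sperm from at least 3 donors, tracked by automated microscopy in 0.5 s time-lapse movies, compounds at 10 and 30 µM, versus median of 16 DMSO wells per plate.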
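Throughout, for total motile sperm, percent change vs DMSO (non-capacitating): sperm pooled from at least 3 donors, tracked in 0.5 s time-lapse movies by automated microscopy after 10 min, 3 h or 6 h with compound at 10 or 30 µM.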

SMILES: C=C[C@@]1(C)CC(=O)[C@@]2(O)[C@](C)(O1)[C@@H](OC(C)=O)[C@@H](O)C1C(C)(C)CC[C@H](O)[C@@]12C (some centres not stated) [Forskolin]
- Cell Painting percent induction (HeLa [1]; 9.99 µM): 1.19%
- Cell Painting percent induction (HeLa [1]; 29.9 µM): 0.108%
- acrosome-reacted (human spermatozoa [2]; 9.99 µM): 0.165%
- acrosome-reacted (human spermatozoa [2]; 29.9 µM): -4.34%
- progressively motile sperm (human spermatozoa [3]; [10]): 0.859%
- progressively motile sperm (human spermatozoa [3]; [11]): 0.86%
- progressively motile sperm (human spermatozoa [3]; [12]): 3.82%
- progressively motile sperm (human spermatozoa [3]; [13]): 13.8%
- progressively motile sperm (human spermatozoa [3]; [14]): -0.781%
- progressively motile sperm (human spermatozoa [3]; [15]): 12%
- total motile sperm (human spermatozoa [4]; [10]): 0.618%
- total motile sperm (human spermatozoa [4]; [11]): 0.675%
- total motile sperm (human spermatozoa [4]; [12]): -0.0205%
- total motile sperm (human spermatozoa [4]; [13]): 4.68%
- total motile sperm (human spermatozoa [4]; [14]): -0.697%
- total motile sperm (human spermatozoa [4]; [15]): -0.227%
- progressively motile sperm (human spermatozoa [5]; 9.99 µM): 7.73%
- progressively motile sperm (human spermatozoa [5]; 29.9 µM): 8.32%
- viability fold change (human spermatozoa [6]; 9.99 µM): -0.712
- viability fold change (human spermatozoa [6]; 29.9 µM): -0.989
- HeLa toxicity: nuclei-count effect normalised (HeLa [7]; 9.99 µM): -1.74%
- HeLa toxicity: nuclei-count effect normalised (HeLa [7]; 29.9 µM): -1.47%
- hyperactivated motile sperm (human spermatozoa [8]; 9.99 µM): 26.6%
- hyperactivated motile sperm (human spermatozoa [8]; 29.9 µM): 5.16%
- change in acrosome-reacted (human spermatozoa [9]; 9.99 µM): 0.404%
- change in acrosome-reacted (human spermatozoa [9]; 29.9 µM): 0.226%
- HepG2 toxicity (HepG2; 10 µM): 3.42%
- HepG2 toxicity (HepG2; 30 µM): -7.11%

SMILES: O=c1c(-c2ccc(O)cc2)coc2cc(O)cc(O)c12 [Genistein]
- Cell Painting percent induction (HeLa [1]; 9.99 µM): 0.108%
- Cell Painting percent induction (HeLa [1]; 29.9 µM): 0.612%
- acrosome-reacted (human spermatozoa [2]; 9.99 µM): 4.37%
- acrosome-reacted (human spermatozoa [2]; 29.9 µM): 8.14%
- progressively motile sperm (human spermatozoa [3]; [10]): 5.98%
- progressively motile sperm (human spermatozoa [3]; [11]): 2.04%
- progressively motile sperm (human spermatozoa [3]; [12]): 6.38%
- progressively motile sperm (human spermatozoa [3]; [13]): 0.504%
- progressively motile sperm (human spermatozoa [3]; [14]): 9.21%
- progressively motile sperm (human spermatozoa [3]; [15]): 2.89%
- total motile sperm (human spermatozoa [4]; [10]): -0.344%
- total motile sperm (human spermatozoa [4]; [11]): -2.3%
- total motile sperm (human spermatozoa [4]; [12]): -0.864%
- total motile sperm (human spermatozoa [4]; [13]): 0.829%
- total motile sperm (human spermatozoa [4]; [14]): -0.945%
- total motile sperm (human spermatozoa [4]; [15]): -6.76%
- progressively motile sperm (human spermatozoa [5]; 9.99 µM): 9.31%
- progressively motile sperm (human spermatozoa [5]; 29.9 µM): 12%
- viability fold change (human spermatozoa [6]; 9.99 µM): -0.643
- viability fold change (human spermatozoa [6]; 29.9 µM): -0.0998
- HeLa toxicity: nuclei-count effect normalised (HeLa [7]; 9.99 µM): 17.4%
- HeLa toxicity: nuclei-count effect normalised (HeLa [7]; 29.9 µM): 22.9%
- hyperactivated motile sperm (human spermatozoa [8]; 9.99 µM): 20.2%
- hyperactivated motile sperm (human spermatozoa [8]; 29.9 µM): -0.318%
- change in acrosome-reacted (human spermatozoa [9]; 9.99 µM): 1.12%
- change in acrosome-reacted (human spermatozoa [9]; 29.9 µM): 1.51%
- HepG2 toxicity (HepG2; 10 µM): 6.96%
- HepG2 toxicity (HepG2; 30 µM): -8.2%

SMILES: Cc1cc2c(C(C)C)c(O)c(O)c(C=O)c2c(O)c1-c1c(C)cc2c(C(C)C)c(O)c(O)c(C=O)c2c1O [Gossypol]
- Cell Painting percent induction (HeLa [1]; 9.99 µM): 0.072%
- Cell Painting percent induction (HeLa [1]; 29.9 µM): 17.1%
- acrosome-reacted (human spermatozoa [2]; 9.99 µM): -15.6%
- acrosome-reacted (human spermatozoa [2]; 29.9 µM): -28.9%
- progressively motile sperm (human spermatozoa [3]; [10]): -3.27%
- progressively motile sperm (human spermatozoa [3]; [11]): -2.36%
- progressively motile sperm (human spermatozoa [3]; [12]): 3.33%
- progressively motile sperm (human spermatozoa [3]; [13]): -8.54%
- progressively motile sperm (human spermatozoa [3]; [14]): 12.2%
- progressively motile sperm (human spermatozoa [3]; [15]): -12.2%
- total motile sperm (human spermatozoa [4]; [10]): -1.73%
- total motile sperm (human spermatozoa [4]; [11]): 0.377%
- total motile sperm (human spermatozoa [4]; [12]): -2.73%
- total motile sperm (human spermatozoa [4]; [13]): -0.0743%
- total motile sperm (human spermatozoa [4]; [14]): -0.633%
- total motile sperm (human spermatozoa [4]; [15]): -2.29%
- progressively motile sperm (human spermatozoa [5]; 9.99 µM): -0.382%
- progressively motile sperm (human spermatozoa [5]; 29.9 µM): 7.08%
- viability fold change (human spermatozoa [6]; 9.99 µM): -0.0154
- viability fold change (human spermatozoa [6]; 29.9 µM): 0.577
- HeLa toxicity: nuclei-count effect normalised (HeLa [7]; 9.99 µM): 27.1%
- HeLa toxicity: nuclei-count effect normalised (HeLa [7]; 29.9 µM): 73.1%
- hyperactivated motile sperm (human spermatozoa [8]; 9.99 µM): -21.9%
- hyperactivated motile sperm (human spermatozoa [8]; 29.9 µM): -39.1%
- change in acrosome-reacted (human spermatozoa [9]; 9.99 µM): 1.41%
- change in acrosome-reacted (human spermatozoa [9]; 29.9 µM): 1.17%
- HepG2 toxicity (HepG2; 10 µM): 54.9%
- HepG2 toxicity (HepG2; 30 µM): 102%

SMILES: O=S(=O)(NCCNC/C=C/c1ccc(Br)cc1)c1cccc2cnccc12 [H 89 dihydrochloride]
- Cell Painting percent induction (HeLa [1]; 9.99 µM): 0.648%
- Cell Painting percent induction (HeLa [1]; 29.9 µM): 1.84%
- acrosome-reacted (human spermatozoa [2]; 9.99 µM): 4.9%
- acrosome-reacted (human spermatozoa [2]; 29.9 µM): 11.9%
- progressively motile sperm (human spermatozoa [3]; [10]): 12.9%
- progressively motile sperm (human spermatozoa [3]; [11]): 3.24%
- progressively motile sperm (human spermatozoa [3]; [12]): 21.9%
- progressively motile sperm (human spermatozoa [3]; [13]): 3.91%
- progressively motile sperm (human spermatozoa [3]; [14]): 27.7%
- progressively motile sperm (human spermatozoa [3]; [15]): 10.5%
- total motile sperm (human spermatozoa [4]; [10]): 5.7%
- total motile sperm (human spermatozoa [4]; [11]): 1.67%
- total motile sperm (human spermatozoa [4]; [12]): 2.42%
- total motile sperm (human spermatozoa [4]; [13]): 2.31%
- total motile sperm (human spermatozoa [4]; [14]): 2.24%
- total motile sperm (human spermatozoa [4]; [15]): 1.63%
- progressively motile sperm (human spermatozoa [5]; 9.99 µM): 9.41%
- progressively motile sperm (human spermatozoa [5]; 29.9 µM): 1.95%
- viability fold change (human spermatozoa [6]; 9.99 µM): -0.8
- viability fold change (human spermatozoa [6]; 29.9 µM): -1.21
- HeLa toxicity: nuclei-count effect normalised (HeLa [7]; 9.99 µM): 7.55%
- HeLa toxicity: nuclei-count effect normalised (HeLa [7]; 29.9 µM): 17.5%
- hyperactivated motile sperm (human spermatozoa [8]; 9.99 µM): 4.83%
- hyperactivated motile sperm (human spermatozoa [8]; 29.9 µM): -35.2%
- change in acrosome-reacted (human spermatozoa [9]; 9.99 µM): 0.62%
- change in acrosome-reacted (human spermatozoa [9]; 29.9 µM): 0.493%
- HepG2 toxicity (HepG2; 10 µM): -3.98%
- HepG2 toxicity (HepG2; 30 µM): 92.3%
